From article PMC11073699, “Odorant receptors for floral- and plant-derived volatiles in the yellow fever mosquito, Aedes aegypti (Diptera: Culicidae)” (PLOS ONE, 2024)
“And” between values parts separate entries of the source, which are not always exact repeats. Equal values may be shown once.

Columns and labels:
Format in all cases: cell-based
AaegOR13 = biological target: T1, AaegOR13 (Aedes aegypti, UniProt Q16Z13); test: Two-electrode voltage clamp of Xenopus laevis oocytes expressing AaegOR13/Orco (blends, unitary compounds, concentration-response); details: unitary compounds; for Normalized response, unitary compounds, Average: average of oocytes 1-7; for Raw data (Responses in nA), unitary compounds of Indoles 1, Alcohols 1, Alcohols 3 / Normalized response, unitary compounds of Indoles 1, Alcohols 1, Alcohols 3: individual oocytes 1-7; for Normalized response, unitary compounds of Indoles 1, Alcohols 1, Alcohols 3: normalized per oocyte
T1 sequence (Q16Z13 1-389): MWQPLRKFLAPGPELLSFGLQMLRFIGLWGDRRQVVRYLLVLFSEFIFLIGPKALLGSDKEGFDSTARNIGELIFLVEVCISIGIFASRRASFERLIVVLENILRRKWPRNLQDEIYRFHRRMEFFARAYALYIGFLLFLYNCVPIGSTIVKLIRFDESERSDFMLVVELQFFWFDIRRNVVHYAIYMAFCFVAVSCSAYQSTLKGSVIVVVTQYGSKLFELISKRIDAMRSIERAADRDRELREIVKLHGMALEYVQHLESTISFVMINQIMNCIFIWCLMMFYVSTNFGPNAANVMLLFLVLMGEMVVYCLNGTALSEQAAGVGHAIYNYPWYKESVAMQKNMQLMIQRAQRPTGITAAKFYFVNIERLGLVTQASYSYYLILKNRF
T1 sequence (Q178U6 1-478 partner): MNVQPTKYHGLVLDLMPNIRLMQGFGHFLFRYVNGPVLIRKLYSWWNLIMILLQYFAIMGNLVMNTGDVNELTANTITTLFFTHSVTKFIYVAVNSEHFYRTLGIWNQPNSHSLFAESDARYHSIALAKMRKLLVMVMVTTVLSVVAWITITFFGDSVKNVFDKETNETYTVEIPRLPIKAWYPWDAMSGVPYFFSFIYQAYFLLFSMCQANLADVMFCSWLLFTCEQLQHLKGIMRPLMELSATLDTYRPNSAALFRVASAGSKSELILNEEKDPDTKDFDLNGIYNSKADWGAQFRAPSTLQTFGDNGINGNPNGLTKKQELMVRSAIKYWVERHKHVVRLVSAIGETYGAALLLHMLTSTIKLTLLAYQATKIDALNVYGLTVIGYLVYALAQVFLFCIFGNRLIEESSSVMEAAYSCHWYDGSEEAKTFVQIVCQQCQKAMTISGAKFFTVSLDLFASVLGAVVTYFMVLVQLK
Description: (§1) The coding regions of ten AaegOR genes of interest (S3 File) and AaegOrco were synthesized by Twist Bioscience (San Francisco, CA, USA) and cloned into the pENTR plasmid. The Gateway LR directional cloning system (Invitrogen Corp., Carlsbad, CA, USA) was utilized to subclone AaegOR coding regions into the pSP64t-RFA oocyte expression plasmid. Plasmids were purified using the GeneJet Plasmid Miniprep Kit (ThermoFisher Scientific, Waltham, MA, USA). Purified plasmids were sequenced in both directions to confirm coding regions.
(§2) Chemical compounds (S6 File) used in the deorphanization of AaegORs were purchased from Acros Organics (Morris, NJ, USA), Alfa Aesar (Ward Hill, MA, USA), and ThermoFisher Scientific (Waltham, MA, USA) at the highest purity available. Compounds were stored as 1M stocks in 100% DMSO. Serial dilutions of each compound were prepared in 10% DMSO and blended by chemical class.
(§3) pSP64t-RFA: AaegOR clones were linearized using Xbal, and cRNAs were synthesized using the mMESSAGE mMACHINE ® SP6 kit (Life Technologies, Carlsbad, CA, USA). Xenopus laevis stage V-VII oocytes purchased from Xenopus1 (Dexter, MI, USA) were stored at 18°C in Incubation medium (ND96 96 with 5% dialyzed horse serum, 50μg/mL gentamycin, 100μg/mL streptomycin, 100μg/mL penicillin, and 550μg/mL sodium pyruvate). 30nL of cRNA was injected into multiple oocytes using a microinjection syringe pump (World Precision Instruments, Sarasota, FL, USA) maintained at 18°C for 48–72 hrs. Odorant blends were perfused across individual oocytes for 10–15 seconds, held at a resting membrane potential of -80 mV using an OC-725C oocyte clamp (Warner Instruments, LLC, Hamden, CT, USA). Induced currents were measured indirectly using the two-electrode voltage clamp technique (TEVC). Following each stimulus, currents were allowed to return to baseline before further stimulation. Data was captured using the Digidata 1550 B digitizer and PClamp10 software (Molecular Devices, San Jose, CA, USA). Concentration-response curves were generated by perfusing unitary odorants over oocytes at increasing concentrations from [10^-3M] to [10^-9M]. Data were analyzed using GraphPad Prism 8 (GraphPad Software Inc., La Jolla, CA, USA). At least two biological replicates were conducted at each concentration and for each compound. Data for at least seven oocytes responding to each compound was analyzed (S7 File).

AaegOR8 = biological target: T2, AaegOR8 (Aedes aegypti, UniProt Q16MN0); test: Two-electrode voltage clamp of Xenopus laevis oocytes expressing AaegOR8/Orco (blends, unitary compounds, concentration-response); details: Alcohols 2 unitary compounds
T2 sequence (Q16MN0 32-422): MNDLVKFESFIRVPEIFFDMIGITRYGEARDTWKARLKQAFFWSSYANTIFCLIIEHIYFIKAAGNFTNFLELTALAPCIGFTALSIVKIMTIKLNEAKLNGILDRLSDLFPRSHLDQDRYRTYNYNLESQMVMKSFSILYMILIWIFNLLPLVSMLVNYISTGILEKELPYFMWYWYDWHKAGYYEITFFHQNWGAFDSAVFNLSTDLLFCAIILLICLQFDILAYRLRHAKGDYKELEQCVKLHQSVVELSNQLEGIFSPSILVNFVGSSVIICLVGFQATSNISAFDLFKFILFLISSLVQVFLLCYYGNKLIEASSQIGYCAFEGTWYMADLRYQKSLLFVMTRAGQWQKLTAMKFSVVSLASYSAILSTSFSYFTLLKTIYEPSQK
T2 sequence (Q178U6 1-478 partner): T1 sequence (Q178U6 1-478 partner)
Description: as §1, §2, §3

AaegOR71 = biological target: T3, AaegOR71 (Aedes aegypti, UniProt A0A3S7SHD4); test: Two-electrode voltage clamp of Xenopus laevis oocytes expressing AaegOR71/Orco (blends, unitary compounds, concentration-response); details: Indoles 2 unitary compounds
T3 sequence (A0A3S7SHD4 1-415): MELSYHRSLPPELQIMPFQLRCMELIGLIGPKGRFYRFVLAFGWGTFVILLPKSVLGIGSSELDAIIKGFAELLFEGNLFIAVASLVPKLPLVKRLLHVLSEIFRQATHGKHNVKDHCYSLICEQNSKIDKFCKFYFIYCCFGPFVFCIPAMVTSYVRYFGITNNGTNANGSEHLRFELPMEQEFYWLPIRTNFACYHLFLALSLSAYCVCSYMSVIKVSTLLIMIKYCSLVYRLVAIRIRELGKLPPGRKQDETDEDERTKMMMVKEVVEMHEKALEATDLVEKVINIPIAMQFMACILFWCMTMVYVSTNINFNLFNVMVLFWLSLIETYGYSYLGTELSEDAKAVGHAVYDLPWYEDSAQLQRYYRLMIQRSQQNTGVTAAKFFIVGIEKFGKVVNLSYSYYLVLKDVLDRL
T3 sequence (Q178U6 1-478 partner): T1 sequence (Q178U6 1-478 partner)
Description: as §1, §2, §3

AaegOR6 = biological target: T4, AaegOR6 (Aedes aegypti, UniProt A0A1S4G757); test: Two-electrode voltage clamp of Xenopus laevis oocytes expressing AaegOR6/Orco (blends, unitary compounds, concentration-response); details: Indoles 2 unitary compounds
T4 sequence (A0A1S4G757 1-398): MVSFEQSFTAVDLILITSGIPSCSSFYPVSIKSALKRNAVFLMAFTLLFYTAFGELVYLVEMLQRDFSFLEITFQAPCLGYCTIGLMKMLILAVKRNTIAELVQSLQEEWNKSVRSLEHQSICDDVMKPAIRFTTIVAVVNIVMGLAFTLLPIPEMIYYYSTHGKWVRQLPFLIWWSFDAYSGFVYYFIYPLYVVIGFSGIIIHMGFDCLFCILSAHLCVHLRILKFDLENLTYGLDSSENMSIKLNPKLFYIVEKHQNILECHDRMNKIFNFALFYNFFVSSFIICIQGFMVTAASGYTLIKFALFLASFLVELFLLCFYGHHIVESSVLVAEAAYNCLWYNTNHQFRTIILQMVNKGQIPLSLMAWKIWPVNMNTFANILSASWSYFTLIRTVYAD
T4 sequence (Q178U6 1-478 partner): T1 sequence (Q178U6 1-478 partner)
Description: as §1, §2, §3

SMILES | Raw data (Responses in nA), unitary compounds of Indoles 1, Alcohols 1, Alcohols 3 (AaegOR13) | Raw Data (Response in nA) Oocyte 1 (AaegOR71) | Raw Data (Response in nA) Oocyte 2 (AaegOR71) | Raw Data (Response in nA) Oocyte 3 (AaegOR71) | Raw Data (Response in nA) Oocyte 4 (AaegOR71) | Raw Data (Response in nA) Oocyte 5 (AaegOR71) | Raw Data (Response in nA) Oocyte 6 (AaegOR71) | Raw Data (Response in nA) Oocyte 7 (AaegOR71) | Raw Data (Response in nA) Oocyte 8 (AaegOR71) | Raw data (Responses in nA) Oocyte 1 (AaegOR6) | Raw data (Responses in nA) Oocyte 2 (AaegOR6) | Raw data (Responses in nA) Oocyte 3 (AaegOR6) | Raw data (Responses in nA) Oocyte 4 (AaegOR6) | Raw data (Responses in nA) Oocyte 5 (AaegOR6) | Raw data (Responses in nA) Oocyte 6 (AaegOR6) | Raw data (Responses in nA) Oocyte 7 (AaegOR6) | Raw data (Responses in nA) Oocyte 8 (AaegOR6) | also measured
C=CC(C)(O)CCC=C(C)C (single isomer, unassigned; (+)) [(+) Linalool] | 0.0 nA | – | – | – | – | – | – | – | – | – | – | – | – | – | – | – | – | Normalized response, unitary compounds, Average (AaegOR13): 0.0; Normalized response, unitary compounds of Indoles 1, Alcohols 1, Alcohols 3 (AaegOR13): 0.0
C=CC(C)(O)CCC=C(C)C (single isomer, unassigned; (-)) [(-) Linalool] | 0.0 nA (6×) and 5.0 nA | – | – | – | – | – | – | – | – | – | – | – | – | – | – | – | – | Normalized response, unitary compounds, Average (AaegOR13): 0.26; Normalized response, unitary compounds of Indoles 1, Alcohols 1, Alcohols 3 (AaegOR13): 0.0 (6×) and 1.8
CC(C)(C)c1ccc(O)cc1 [4-tert-butylphenol] | 10.0 nA and 305.0 nA and 70.0 nA and 85.0 nA and 150.0 nA and 90.0 nA and 55.0 nA | – | – | – | – | – | – | – | – | – | – | – | – | – | – | – | – | –
CC1CCCC2(C)CCCCC12O (stereo not drawn) [Geosmin] | – | – | – | – | – | – | – | – | – | – | – | – | – | – | – | – | – | Raw data (Responses in nA) Oocyte 1 (AaegOR8; oocyte 1): 0.0 nA; Raw data (Responses in nA) Oocyte 2 (AaegOR8; oocyte 2): 0.0 nA; Raw data (Responses in nA) Oocyte 3 (AaegOR8; oocyte 3): 0.0 nA; Raw data (Responses in nA) Oocyte 4 (AaegOR8; oocyte 4): 0.0 nA; Raw data (Responses in nA) Oocyte 5 (AaegOR8; oocyte 5): 0.0 nA; Raw data (Responses in nA) Oocyte 6 (AaegOR8; oocyte 6): 0.0 nA; Raw data (Responses in nA) Oocyte 7 (AaegOR8; oocyte 7): 0.0 nA; Raw data (Responses in nA) Oocyte 8 (AaegOR8; oocyte 8): 0.0 nA
O=C1Nc2ccccc2C1=O [Isatin] | – | 150 nA | 0 nA | 0 nA | 0 nA | 0 nA | 0 nA | 10 nA | 0 nA | 0.0 nA | 0.0 nA | 10.0 nA | 0.0 nA | 0.0 nA | 0.0 nA | 0.0 nA | 0.0 nA | –
O=C1Cc2ccccc2N1 [Oxindole] | – | 0 nA | 20 nA | 0 nA | 10 nA | 0 nA | 10 nA | 5 nA | 20 nA | 0.0 nA | 0.0 nA | 0.0 nA | 0.0 nA | 0.0 nA | 0.0 nA | 0.0 nA | 10.0 nA | –
c1ccc2ncncc2c1 [Quinazoline] | – | 70 nA | 440 nA | 45 nA | 250 nA | 40 nA | 150 nA | 50 nA | 40 nA | 0.0 nA | 0.0 nA | 0.0 nA | 0.0 nA | 0.0 nA | 10.0 nA | 0.0 nA | 0.0 nA | –
c1ccc2ncccc2c1 [Quinoline] | – | 900 nA | 2210 nA | 330 nA | 1050 nA | 300 nA | 760 nA | 210 nA | 250 nA | 0.0 nA | 0.0 nA | 0.0 nA | 0.0 nA | 0.0 nA | 10.0 nA | 10.0 nA | 0.0 nA | –
c1ccc2nccnc2c1 [Quinoxaline] | – | 0 nA | 620 nA | 85 nA | 370 nA | 60 nA | 200 nA | 80 nA | 70 nA | 0.0 nA | 0.0 nA | 0.0 nA | 0.0 nA | 0.0 nA | 0.0 nA | 0.0 nA | 0.0 nA | –
O=Cc1c[nH]c2ccccc12 [indole-3-carboxyaldehyde] | 0.0 nA (2×) and 5.0 nA (5×) | – | – | – | – | – | – | – | – | – | – | – | – | – | – | – | – | –
